According to PMC7193943 (European journal of medicinal chemistry, 2019):

Experiments:
[1] = system: P-glycoprotein efflux transporter; conditions: Caco-2 colorectal adenocarcinoma cells; cited from earlier work
[2] = Solubility in aqueous media; format: physicochemical
[3] = system: H2228 cells
[4] = system: ALK-positive H2228 and ALK-negative H441 cells; test: Live cell tracer uptake assay; format: cell-based, human; conditions: after 30 min of incubation
[5] = mice, 24 h after oral administration; cited from earlier work
[6] = system: H441 cells; test: Cytotoxicity assay; format: cell-based, human; conditions: 72 h

SMILES: CCc1cc2c(cc1N1CCC(N3CCOCC3)CC1)C(C)(C)c1[nH]c3cc(C#N)ccc3c1C2=O [Alectinib, 9-Ethyl-6,6-dimethyl-8-[4-(morpholin-4-yl)piperidin-1-yl]-11-oxo-6,11-dihydro-5H-benzo[b]carbazole-3-carbonitrile]
- transport by the P-glycoprotein efflux transporter [1]: not transported

SMILES: C[C@@H](Oc1cc(-c2cnn(C3CCN(CCF)CC3)c2)cnc1N)c1c(Cl)ccc(F)c1Cl [Compound 1, 3-((R)-1-(2,6-dichloro-3-fluorophenyl)ethoxy)-5-(1-(fluoroethylpiperidin-4-yl)-1H-pyrazol-4-yl)pyridin-2-amine]
- solubility in saline or PBS solutions [2]: not soluble
- fold loss of potency versus parent drug [3]: less than 3 fold

SMILES: Cc1cc(Nc2ncc(Cl)c(Nc3ccccc3S(=O)(=O)C(C)C)n2)c(OC(C)C)cc1C1CCN(CCF)CC1 [[^18F]9]
- cell-associated radioactivity, H2228 vs H441 [4]: higher uptake in the ALK-positive H2228 cells
- solubility in water or saline ([2]; water or saline): insoluble

SMILES: Cc1cc(Nc2ncc(Cl)c(Nc3ccccc3S(=O)(=O)C(C)C)n2)c(OC(C)C)cc1C1CCNCC1 [Ceritinib, 5-Chloro-N2-(2-isopropoxy-5-methyl-4-(piperidin-4-yl)phenyl)-N4-(2-(isopropylsulfonyl)phenyl)pyrimidine-2,4-diamine, reference compound]
- drug found in the brain [5]: 0.4%
- IC50 [3]: 2.9 µM

SMILES: Cc1cc(Nc2ncc(Cl)c(Nc3ccccc3S(=O)(=O)C(C)C)n2)c(OC(C)C)cc1C1CCN(CCF)CC1 [Compound 9, 5-Chloro-N2–(2-isoprpoxy-5-methyl-4-(1-fluoroethylpiperidin-4-yl)phenyl)-N4-[2-(propane-2-sulfonyl)phenyl]pyrimidine-2,4-diamine]
- solubility in saline or PBS solutions [2]: not soluble
- fold loss of potency versus parent drug [3]: ~10 fold

SMILES: CCc1cc2c(cc1N1CCC(N3CCOCC3)CC1)C(C)(C)c1c(c3ccc(C#N)cc3n1CCF)C2=O [Compound 4, 9-Ethyl-6,6-dimethyl-8-[4-(morpholin-4-yl)piperidin-1-yl]-11-oxo-6,11-dihydro-5(2-fluoroethyl)-benzo[b]carbazole-3-carbonitrile]
- effect on ALK-negative H441 cells (cytotoxicity) [6]: no substantial effect
- solubility in saline or PBS solutions [2]: not soluble
